Test results published in patent publication US9340590B2 (priority 2011, dated 2016).
pIC50: −log10 of the molar value. Positions of bridges follow the written chain, without caps; N, C: chain ends. Non-standard residues stand in square brackets, D forms with d. Residues, ends and D or L forms follow the SMILES beside them. Phe(4-NH2) = Nc1ccc(C[C@H](N)C(=O)O)cc1; 3Pal = N[C@@H](Cc1cccnc1)C(=O)O; Pra = C#CC[C@H](N)C(=O)O

Columns and labels:
Test in all cases: cell-based
[1] = target: hNav1.7 (Homo sapiens, UniProt Q15858); type: cell-based; conditions: IonWorks Quattro, use-dependent block, hNav1.7; read-out: IWQ Use Nav1.7
Sequence of hNav1.7 (Q15858 whole entry, looked up): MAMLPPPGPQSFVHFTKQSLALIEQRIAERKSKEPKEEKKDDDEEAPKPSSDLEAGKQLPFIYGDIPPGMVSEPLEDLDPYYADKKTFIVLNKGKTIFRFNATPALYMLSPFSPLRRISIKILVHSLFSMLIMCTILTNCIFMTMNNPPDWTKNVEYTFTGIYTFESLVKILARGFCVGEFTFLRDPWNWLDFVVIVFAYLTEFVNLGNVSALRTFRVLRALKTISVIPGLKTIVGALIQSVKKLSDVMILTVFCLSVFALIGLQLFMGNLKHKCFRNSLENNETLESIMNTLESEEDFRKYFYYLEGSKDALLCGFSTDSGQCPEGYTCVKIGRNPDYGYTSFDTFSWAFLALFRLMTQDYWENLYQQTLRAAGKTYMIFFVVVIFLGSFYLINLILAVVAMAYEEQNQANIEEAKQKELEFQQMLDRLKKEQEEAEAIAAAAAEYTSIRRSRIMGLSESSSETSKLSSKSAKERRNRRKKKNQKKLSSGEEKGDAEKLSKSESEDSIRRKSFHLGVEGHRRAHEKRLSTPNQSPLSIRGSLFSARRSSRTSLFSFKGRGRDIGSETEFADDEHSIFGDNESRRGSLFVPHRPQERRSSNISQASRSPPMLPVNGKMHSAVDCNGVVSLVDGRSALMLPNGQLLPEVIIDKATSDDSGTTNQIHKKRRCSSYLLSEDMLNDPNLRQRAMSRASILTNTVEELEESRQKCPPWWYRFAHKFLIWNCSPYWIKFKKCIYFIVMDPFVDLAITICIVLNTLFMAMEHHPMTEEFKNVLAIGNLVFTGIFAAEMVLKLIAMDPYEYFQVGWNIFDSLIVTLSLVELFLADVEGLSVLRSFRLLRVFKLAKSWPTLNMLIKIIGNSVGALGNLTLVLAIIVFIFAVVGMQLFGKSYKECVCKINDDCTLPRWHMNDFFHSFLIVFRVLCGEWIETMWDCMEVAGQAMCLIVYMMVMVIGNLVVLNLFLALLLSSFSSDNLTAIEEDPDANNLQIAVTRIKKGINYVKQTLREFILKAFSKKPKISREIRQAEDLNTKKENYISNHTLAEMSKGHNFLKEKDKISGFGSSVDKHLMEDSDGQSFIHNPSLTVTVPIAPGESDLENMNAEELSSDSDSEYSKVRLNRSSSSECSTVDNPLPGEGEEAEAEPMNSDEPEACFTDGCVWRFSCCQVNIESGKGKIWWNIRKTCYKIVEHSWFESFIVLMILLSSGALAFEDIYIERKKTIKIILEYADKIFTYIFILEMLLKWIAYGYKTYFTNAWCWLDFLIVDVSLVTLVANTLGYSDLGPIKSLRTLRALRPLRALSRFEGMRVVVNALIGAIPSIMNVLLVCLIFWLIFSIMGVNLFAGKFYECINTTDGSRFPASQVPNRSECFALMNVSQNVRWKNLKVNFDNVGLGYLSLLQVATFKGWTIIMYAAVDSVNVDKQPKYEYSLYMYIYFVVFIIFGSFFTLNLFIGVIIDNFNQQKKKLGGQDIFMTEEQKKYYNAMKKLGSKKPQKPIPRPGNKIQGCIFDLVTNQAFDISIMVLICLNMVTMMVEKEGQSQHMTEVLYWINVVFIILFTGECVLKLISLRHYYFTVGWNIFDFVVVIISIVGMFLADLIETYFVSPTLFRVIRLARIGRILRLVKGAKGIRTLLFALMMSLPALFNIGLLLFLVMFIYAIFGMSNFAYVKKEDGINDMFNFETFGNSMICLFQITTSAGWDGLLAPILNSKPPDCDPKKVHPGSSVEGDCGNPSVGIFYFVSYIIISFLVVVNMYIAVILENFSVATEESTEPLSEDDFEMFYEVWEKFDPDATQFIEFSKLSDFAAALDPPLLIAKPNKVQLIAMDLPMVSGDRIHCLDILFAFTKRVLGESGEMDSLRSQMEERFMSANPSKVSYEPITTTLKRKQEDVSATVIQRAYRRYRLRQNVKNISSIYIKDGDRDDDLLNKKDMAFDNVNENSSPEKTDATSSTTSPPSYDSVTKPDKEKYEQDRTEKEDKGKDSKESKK

[2] = target: hNav1.5 (Homo sapiens, UniProt Q14524); conditions: IonWorks Quattro, use-dependent block, hNav1.5; read-out: IWQ Use Nav1.5
Sequence of hNav1.5 (Q14524 whole entry, looked up): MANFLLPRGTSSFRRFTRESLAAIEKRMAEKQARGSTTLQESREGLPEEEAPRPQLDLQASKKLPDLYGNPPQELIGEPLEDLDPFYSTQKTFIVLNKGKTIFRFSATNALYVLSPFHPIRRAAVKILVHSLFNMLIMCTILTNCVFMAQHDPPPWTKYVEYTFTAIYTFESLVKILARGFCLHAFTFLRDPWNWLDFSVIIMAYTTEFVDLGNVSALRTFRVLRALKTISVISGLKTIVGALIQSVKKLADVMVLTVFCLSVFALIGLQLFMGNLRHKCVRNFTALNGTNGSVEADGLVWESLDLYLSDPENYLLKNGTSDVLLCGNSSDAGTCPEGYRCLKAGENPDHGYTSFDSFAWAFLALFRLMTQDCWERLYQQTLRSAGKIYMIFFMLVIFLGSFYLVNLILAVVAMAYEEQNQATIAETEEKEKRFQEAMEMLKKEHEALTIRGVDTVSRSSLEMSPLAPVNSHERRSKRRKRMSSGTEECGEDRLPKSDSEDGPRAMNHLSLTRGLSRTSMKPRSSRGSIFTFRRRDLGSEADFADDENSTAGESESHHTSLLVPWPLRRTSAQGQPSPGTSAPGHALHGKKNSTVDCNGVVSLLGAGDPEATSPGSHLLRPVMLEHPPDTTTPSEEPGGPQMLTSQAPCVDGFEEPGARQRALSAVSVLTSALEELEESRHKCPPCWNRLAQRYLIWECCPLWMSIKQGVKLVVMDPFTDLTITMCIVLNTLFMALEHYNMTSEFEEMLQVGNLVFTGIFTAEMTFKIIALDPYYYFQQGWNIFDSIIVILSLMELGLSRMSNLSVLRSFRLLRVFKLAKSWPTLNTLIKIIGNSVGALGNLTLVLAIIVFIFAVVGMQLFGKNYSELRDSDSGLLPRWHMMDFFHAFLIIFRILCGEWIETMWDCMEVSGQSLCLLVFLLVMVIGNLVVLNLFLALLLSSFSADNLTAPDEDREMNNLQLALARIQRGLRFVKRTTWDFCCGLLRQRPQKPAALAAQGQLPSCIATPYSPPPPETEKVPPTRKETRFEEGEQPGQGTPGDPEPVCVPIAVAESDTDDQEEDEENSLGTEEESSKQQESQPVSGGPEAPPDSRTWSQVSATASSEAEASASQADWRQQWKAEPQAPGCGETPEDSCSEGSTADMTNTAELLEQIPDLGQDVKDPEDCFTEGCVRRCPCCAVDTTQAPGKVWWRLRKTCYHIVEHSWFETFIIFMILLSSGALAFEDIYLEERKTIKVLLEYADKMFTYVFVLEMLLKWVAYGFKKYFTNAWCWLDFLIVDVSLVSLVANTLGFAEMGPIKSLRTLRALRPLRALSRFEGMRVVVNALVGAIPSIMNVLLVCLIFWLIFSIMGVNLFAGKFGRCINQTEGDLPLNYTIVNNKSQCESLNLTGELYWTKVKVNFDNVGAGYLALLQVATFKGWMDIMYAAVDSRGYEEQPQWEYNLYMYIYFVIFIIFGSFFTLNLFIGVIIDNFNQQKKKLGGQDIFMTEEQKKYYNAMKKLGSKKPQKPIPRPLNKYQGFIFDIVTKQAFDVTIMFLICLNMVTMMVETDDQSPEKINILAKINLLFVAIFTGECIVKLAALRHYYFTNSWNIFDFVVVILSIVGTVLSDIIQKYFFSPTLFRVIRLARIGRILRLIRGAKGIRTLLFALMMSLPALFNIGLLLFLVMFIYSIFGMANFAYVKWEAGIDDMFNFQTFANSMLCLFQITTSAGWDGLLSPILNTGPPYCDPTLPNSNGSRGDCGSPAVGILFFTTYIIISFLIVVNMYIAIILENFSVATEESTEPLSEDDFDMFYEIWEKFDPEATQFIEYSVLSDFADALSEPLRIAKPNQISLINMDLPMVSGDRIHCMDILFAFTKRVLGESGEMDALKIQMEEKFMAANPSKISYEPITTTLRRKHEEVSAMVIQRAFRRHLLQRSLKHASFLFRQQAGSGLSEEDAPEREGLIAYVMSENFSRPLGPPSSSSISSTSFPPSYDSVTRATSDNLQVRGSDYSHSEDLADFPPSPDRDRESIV

[3] = target: hNav1.3 (Homo sapiens, UniProt Q9NY46); conditions: IonWorks Quattro, use-dependent block, hNav1.3; read-out: IWQ Use Nav1.3

## CC[C@H](C)[C@@H]1NC(=O)[C@@H]2CSSC[C@@H]3NC(=O)[C@H](C(C)C)NC(=O)[C@H](CC(C)C)NC(=O)[C@H](CC(N)=O)NC(=O)[C@@H]4CCCN4C(=O)[C@H](CCCNC(=N)N)NC(=O)[C@H](CSSC[C@H](NC(=O)[C@@H](N)CC(=O)O)C(=O)N[C@@H](CC(C)C)C(=O)NCC(=O)N[C@@H](C)C(=O)N[C@@H](CC(C)C)C(=O)N[C@@H](CCCNC(=N)N)C(=O)N[C@@H](CCCCN)C(=O)N2)NC(=O)[C@H](CSSC[C@@H](C(=O)N[C@@H](CCCCN)C(=O)N[C@@H](Cc2ccc(O)cc2)C(=O)N[C@H](C(=O)N[C@@H](Cc2ccccc2)C(N)=O)C(C)C)NC(=O)[C@H](Cc2c[nH]c4ccccc24)NC(=O)[C@H](CCCCN)NC(=O)[C@H](Cc2c[nH]cn2)NC(=O)[C@H]([C@@H](C)O)NC(=O)[C@H](CCC(=O)O)NC(=O)[C@H](CO)NC3=O)NC(=O)[C@H](CCCCN)NC(=O)[C@H](CC(=O)O)NC(=O)[C@H](CC(N)=O)NC(=O)[C@H](CC(=O)O)NC(=O)[C@@H]2CCCN2C1=O [compound 734]
[1]
  pIC50: 5.74
[2]
  pIC50: 4.39
[3]
  pIC50: 5.03

## CC[C@H](C)[C@@H]1NC(=O)[C@@H]2CSSC[C@@H]3NC(=O)[C@H](C(C)C)NC(=O)[C@H](CC(C)C)NC(=O)[C@H](CC(N)=O)NC(=O)[C@@H]4CCCN4C(=O)[C@H](CCCNC(=N)N)NC(=O)[C@H](CSSC[C@H](NC(=O)[C@@H](N)CC(=O)O)C(=O)N[C@@H](CC(C)C)C(=O)NCC(=O)N[C@@H](C)C(=O)N[C@@H](Cc4ccccc4)C(=O)N[C@@H](CCCNC(=N)N)C(=O)N[C@@H](CCCCN)C(=O)N2)NC(=O)[C@H](CSSC[C@@H](C(=O)N[C@@H](CCCCN)C(=O)N[C@@H](Cc2ccc(O)cc2)C(=O)N[C@H](C(=O)N[C@@H](Cc2ccccc2)C(N)=O)C(C)C)NC(=O)[C@H](Cc2c[nH]c4ccccc24)NC(=O)[C@H](CCCCN)NC(=O)[C@H](Cc2c[nH]cn2)NC(=O)[C@H]([C@@H](C)O)NC(=O)[C@H](CCC(=O)O)NC(=O)[C@H](CO)NC3=O)NC(=O)[C@H](CCCCN)NC(=O)[C@H](CC(=O)O)NC(=O)[C@H](CC(N)=O)NC(=O)[C@H](CC(=O)O)NC(=O)[C@@H]2CCCN2C1=O [compound 735] (H-DCLGAFRKCIPDNDKCCRPNLVCSETHKWCKYVF-NH2; disulfide 2-17, 9-23, 16-30)
[1]
  pIC50: 5.82
[2]
  pIC50: 4.39
[3]
  pIC50: 5.44

## C#CC[C@@H]1NC(=O)[C@H](CC(=O)O)NC(=O)[C@H](CC(N)=O)NC(=O)[C@H](CC(=O)O)NC(=O)[C@@H]2CCCN2C(=O)[C@H]([C@@H](C)CC)NC(=O)[C@@H]2CSSC[C@@H]3NC(=O)[C@H](C(C)C)NC(=O)[C@H](CC(C)C)NC(=O)[C@H](CC(N)=O)NC(=O)[C@@H]4CCCN4C(=O)[C@H](CCCNC(=N)N)NC(=O)[C@H](CSSC[C@H](NC(=O)[C@@H](N)CC(=O)O)C(=O)N[C@@H](CC(C)C)C(=O)NCC(=O)N[C@@H](Cc4ccccc4)C(=O)N[C@@H](Cc4ccccc4)C(=O)N[C@@H](CCCNC(=N)N)C(=O)N[C@@H](CCCCN)C(=O)N2)NC(=O)[C@H](CSSC[C@@H](C(=O)N[C@@H](CCCCN)C(=O)N[C@@H](Cc2ccc(O)cc2)C(=O)N[C@H](C(=O)N[C@@H](Cc2ccccc2)C(N)=O)C(C)C)NC(=O)[C@H](Cc2c[nH]c4ccccc24)NC(=O)[C@H](CCCCN)NC(=O)[C@H](Cc2c[nH]cn2)NC(=O)[C@H]([C@@H](C)O)NC(=O)[C@H](CCCNC(=N)N)NC(=O)[C@H](CO)NC3=O)NC1=O [compound 736] (H-DCLGFFRKCIPDND[Pra]CCRPNLVCSRTHKWCKYVF-NH2; disulfide 2-17, 9-23, 16-30)
[1]
  pIC50: < 5.30
[2]
  pIC50: 4.49
[3]
  pIC50: < 5.30

## CC[C@H](C)[C@@H]1NC(=O)[C@@H]2CSSC[C@@H]3NC(=O)[C@H](C(C)C)NC(=O)[C@H](CC(C)C)NC(=O)[C@H](CC(N)=O)NC(=O)[C@@H]4CCCN4C(=O)[C@H](CCCNC(=N)N)NC(=O)[C@H](CSSC[C@H](NC(=O)[C@@H](N)CC(=O)O)C(=O)N[C@@H](CC(C)C)C(=O)NCC(=O)N[C@@H](C)C(=O)N[C@@H](CCSC)C(=O)N[C@@H](CCCNC(=N)N)C(=O)N[C@@H](CCCCN)C(=O)N2)NC(=O)[C@H](CSSC[C@@H](C(=O)N[C@@H](CCCCN)C(=O)N[C@@H](Cc2ccc(O)cc2)C(=O)N[C@H](C(=O)N[C@@H](Cc2ccccc2)C(N)=O)C(C)C)NC(=O)[C@H](Cc2c[nH]c4ccccc24)NC(=O)[C@H](Cc2c[nH]cn2)NC(=O)[C@H](Cc2c[nH]cn2)NC(=O)[C@H]([C@@H](C)O)NC(=O)[C@H](CCCNC(=N)N)NC(=O)[C@H](CO)NC3=O)NC(=O)[C@H](CCCCN)NC(=O)[C@H](CC(=O)O)NC(=O)[C@H](CC(N)=O)NC(=O)[C@H](CC(=O)O)NC(=O)[C@@H]2CCCN2C1=O [compound 737] (H-DCLGAMRKCIPDNDKCCRPNLVCSRTHHWCKYVF-NH2; disulfide 2-17, 9-23, 16-30)
[1]
  pIC50: 6.40
[2]
  pIC50: 4.72
[3]
  pIC50: 5.80

## CC[C@H](C)[C@@H]1NC(=O)[C@@H]2CSSC[C@@H]3NC(=O)[C@H](C(C)C)NC(=O)[C@H](CC(C)C)NC(=O)[C@H](CC(N)=O)NC(=O)[C@@H]4CCCN4C(=O)[C@H](CCCNC(=N)N)NC(=O)[C@H](CSSC[C@H](NC(=O)[C@@H](N)CC(=O)O)C(=O)N[C@@H](CC(C)C)C(=O)NCC(=O)N[C@@H](C)C(=O)N[C@@H](CCSC)C(=O)N[C@@H](CCCNC(=N)N)C(=O)N[C@@H](CCCCN)C(=O)N2)NC(=O)[C@H](CSSC[C@@H](C(=O)N[C@@H](CCCCN)C(=O)N[C@@H](Cc2ccc(O)cc2)C(=O)N[C@H](C(=O)N[C@@H](Cc2ccccc2)C(N)=O)C(C)C)NC(=O)[C@H](Cc2c[nH]c4ccccc24)NC(=O)[C@H](CO)NC(=O)[C@H](Cc2c[nH]cn2)NC(=O)[C@H]([C@@H](C)O)NC(=O)[C@H](CCCNC(=N)N)NC(=O)[C@H](CO)NC3=O)NC(=O)[C@H](CCCCN)NC(=O)[C@H](CC(=O)O)NC(=O)[C@H](CC(N)=O)NC(=O)[C@H](CC(=O)O)NC(=O)[C@@H]2CCCN2C1=O [compound 738] (H-DCLGAMRKCIPDNDKCCRPNLVCSRTHSWCKYVF-NH2; disulfide 2-17, 9-23, 16-30)
[1]
  pIC50: 6.19
[2]
  pIC50: 4.66
[3]
  pIC50: 5.74

## CC[C@H](C)[C@@H]1NC(=O)[C@@H]2CSSC[C@@H]3NC(=O)[C@H](C(C)C)NC(=O)[C@H](CC(C)C)NC(=O)[C@H](CC(N)=O)NC(=O)[C@@H]4CCCN4C(=O)[C@H](CCCNC(=N)N)NC(=O)[C@H](CSSC[C@H](NC(=O)[C@@H](N)CC(=O)O)C(=O)N[C@@H](CC(C)C)C(=O)NCC(=O)N[C@@H](C)C(=O)N[C@@H](CCSC)C(=O)N[C@@H](CCCNC(=N)N)C(=O)N[C@@H](CCCCN)C(=O)N2)NC(=O)[C@H](CSSC[C@@H](C(=O)N[C@@H](CCCCN)C(=O)N[C@@H](Cc2ccc(O)cc2)C(=O)N[C@H](C(=O)N[C@@H](Cc2ccccc2)C(N)=O)C(C)C)NC(=O)[C@H](Cc2c[nH]c4ccccc24)NC(=O)[C@H](CCC(N)=O)NC(=O)[C@H](Cc2c[nH]cn2)NC(=O)[C@H]([C@@H](C)O)NC(=O)[C@H](CCCNC(=N)N)NC(=O)[C@H](CO)NC3=O)NC(=O)[C@H](CCCCN)NC(=O)[C@H](CC(=O)O)NC(=O)[C@H](CC(N)=O)NC(=O)[C@H](CC(=O)O)NC(=O)[C@@H]2CCCN2C1=O [compound 739] (H-DCLGAMRKCIPDNDKCCRPNLVCSRTHQWCKYVF-NH2; disulfide 2-17, 9-23, 16-30)
[1]
  pIC50: 6.20
[2]
  pIC50: 4.69
[3]
  pIC50: 5.66

## CC[C@H](C)[C@@H]1NC(=O)[C@@H]2CSSC[C@@H]3NC(=O)[C@H](C(C)C)NC(=O)[C@H](CC(C)C)NC(=O)[C@H](CC(N)=O)NC(=O)[C@@H]4CCCN4C(=O)[C@H](CCCNC(=N)N)NC(=O)[C@H](CSSC[C@H](NC(=O)[C@@H](N)CC(=O)O)C(=O)N[C@@H](CC(C)C)C(=O)NCC(=O)N[C@@H](C)C(=O)N[C@@H](CCSC)C(=O)N[C@@H](CCCNC(=N)N)C(=O)N[C@@H](CCCCN)C(=O)N2)NC(=O)[C@H](CSSC[C@@H](C(=O)N[C@@H](CCCCN)C(=O)N[C@@H](Cc2ccc(O)cc2)C(=O)N[C@H](C(=O)N[C@@H](Cc2ccccc2)C(N)=O)C(C)C)NC(=O)[C@H](Cc2c[nH]c4ccccc24)NC(=O)[C@H](Cc2cccnc2)NC(=O)[C@H](Cc2c[nH]cn2)NC(=O)[C@H]([C@@H](C)O)NC(=O)[C@H](CCCNC(=N)N)NC(=O)[C@H](CO)NC3=O)NC(=O)[C@H](CCCCN)NC(=O)[C@H](CC(=O)O)NC(=O)[C@H](CC(N)=O)NC(=O)[C@H](CC(=O)O)NC(=O)[C@@H]2CCCN2C1=O [compound 740] (H-DCLGAMRKCIPDNDKCCRPNLVCSRTH[3Pal]WCKYVF-NH2; disulfide 2-17, 9-23, 16-30)
[1]
  pIC50: 5.82
[2]
  pIC50: 4.51
[3]
  pIC50: < 5.30

## CC[C@H](C)[C@@H]1NC(=O)[C@@H]2CSSC[C@@H]3NC(=O)[C@H](C(C)C)NC(=O)[C@H](CC(C)C)NC(=O)[C@H](CC(N)=O)NC(=O)[C@@H]4CCCN4C(=O)[C@H](CCCNC(=N)N)NC(=O)[C@H](CSSC[C@H](NC(=O)[C@@H](N)CC(=O)O)C(=O)N[C@@H](CC(C)C)C(=O)NCC(=O)N[C@@H](C)C(=O)N[C@@H](CCSC)C(=O)N[C@@H](CCCNC(=N)N)C(=O)N[C@@H](CCCCN)C(=O)N2)NC(=O)[C@H](CSSC[C@@H](C(=O)N[C@@H](CCCCN)C(=O)N[C@@H](Cc2ccc(O)cc2)C(=O)N[C@H](C(=O)N[C@@H](Cc2ccccc2)C(N)=O)C(C)C)NC(=O)[C@H](Cc2c[nH]c4ccccc24)NC(=O)[C@H](Cc2ccc(N)cc2)NC(=O)[C@H](Cc2c[nH]cn2)NC(=O)[C@H]([C@@H](C)O)NC(=O)[C@H](CCCNC(=N)N)NC(=O)[C@H](CO)NC3=O)NC(=O)[C@H](CCCCN)NC(=O)[C@H](CC(=O)O)NC(=O)[C@H](CC(N)=O)NC(=O)[C@H](CC(=O)O)NC(=O)[C@@H]2CCCN2C1=O [compound 741] (H-DCLGAMRKCIPDNDKCCRPNLVCSRTH[Phe(4-NH2)]WCKYVF-NH2; disulfide 2-17, 9-23, 16-30)
[1]
  pIC50: 5.96
[2]
  pIC50: 4.61
[3]
  pIC50: 5.64
